7 compounds from ChEMBL document CHEMBL3797030, “Anti-hepatitis C Virus Natural Product from a Fungus, Penicillium herquei” (J Nat Prod, 2016) can be followed below.

pIC50: −log10 of the molar value. A value given as a limit tells only on which side of the number the result lay.

For this assay, the system named is Hepatitis C virus. In words: Antiviral activity against Hepatitis C virus J6/JFH1 infected in human Huh7.5.1 cells assessed as reduction in amount of core HCV protein after 72 hrs by focus formation assay. It is filed as functional, organism-based, Hepacivirus hominis. As to conditions: J6/JFH1, Huh-7, 72 h.
For the compound `C[C@H]1CCN2C[C@]34C[C@@]5(C(=O)Nc6c5ccc5c6C(=O)CC(C)(C)O5)C(C)(C)[C@@H]3C[C@]12C(=O)N4`, the pIC50 (in general, the negative decadic logarithm of the IC50, by convention in mol/L) was less than 4.40.
Under `C[C@H]1CCN2CC34Cc5c([nH]c6c7c(ccc56)OC(C)(C)CC7=O)C(C)(C)[C@@H]3CC12C(=O)N4` (some centres not stated) stands 5.29; under `COc1c(O)c2c3c(c1O)C(=O)[C@@]1(O)C(=C3C(C)=CC2=O)O[C@H](C)C1(C)C`, less than 4.40; under `COC1=C(O)C2=C3O[C@H](C)C(C)(C)[C@]3(O)C(=O)c3c(C)cc(O)c(c32)C1=O`, less than 4.40.
As to `COC1=N[C@]23CN4CC[C@@](C)(O)[C@]14C[C@H]2C(C)(C)[C@@]1(C3)C(=O)Nc2c1ccc1c2C(=O)CC(C)(C)O1`, the pIC50 is less than 4.40.
As for `COc1c(O)c2c3c(c1O)C(=O)[C@@]1(O)C(=C3C(C)=C(O)C2=O)O[C@@H](C)C1(C)C`, the pIC50 is less than 4.40.
Regarding `C[C@H]1CCN2C[C@]34Cc5c([nH]c6ccccc56)C(C)(C)[C@@H]3C[C@]12C(=O)N4`, the pIC50 was less than 4.40.
